Laboratory results: patent US6664039B1, “Methods and compositions for modulating neurodegeneration” (California Institute of Technology, priority 1998, dated 2003)
Entries after “also recorded” stand apart in the source; their conditions may differ.

Columns and labels:
bubblegum mutant flies [1] = assay: Countercurrent phototaxis test; assay type: in vivo, Drosophila; details: 5 day old bubblegum raised with the oil from the larval stage
From the text: Phototactic analysis. In ALD, visual loss is on of the clinical symptoms, and anatomical analysis has shown abnormalities of the optic nerve and degeneration of ganglion cell layer. Flies transformed with P-elements expressing eye pigment, as is the case for bubblegum, are phototactic. A countercurrent phototaxis test was used to examine the visual behavior of bubblegum. […] Therefore, the oil treatment can prevent the biochemical, structural, and physiological defects caused by the mutation.
Flies were placed in a countercurrent distribution apparatus and responses to light were analyzed. Each numbered tube represents the number of positive responses in a total of 5 trials. In control tests for the from-light response, neither group of flies moved away from light.

bubblegum mutant flies [2] = assay: Lifespan of bubblegum mutant flies; assay type: in vivo, Drosophila; details: male mutant flies treated with oil from larval stage
Procedure: Mutagenesis and screen. Drosophilia lines carrying P(lacZ, w+) were screened for mutations causing reduced lifespan at 29° C.
(§1) To determine whether similar dietary treatment can reduce the level of C26 and/or prevent the pathology seen in bubblegum, 2.5% of GTO oil was added to the normal corn meal-yeast-agar medium. […] However, knowing that oil treatment in ALD was not able to prevent the progression of the disease once patients had shown neurological symptoms, we decided to treat mutant flies with the oil at pre-adult stages. First instar larvae were raised in the oil-containing medium until eclosion and the adult flies were then transferred into fresh medium, still containing the oil, changed every 3 days.

VLCFAs = assay: Assay of very long chain fatty acids by gas chromatography in bubblegum flies; assay type: in vivo, Drosophila; details: male mutant flies treated from larval stage, 15 days old, compared with parental strain
Procedure: Assay of very long chain fatty acids by gas chromatography. To determine whether bubblegum has an accumulation of VLCFAs, fatty acid analysis by gas chromatography was performed on 15 day old flies, comparing homozygous mutant flies with those of the parent strain from which bubblegum was derived.
Extracts of whole male or female flies were used for purification and methylation of fatty acids. Gas chromatography was performed with a HP-5MS column (30 m×0.25 mm, 0.25-μm film thickness) and mass spectrometry was used to analyze the fatty acid methyl esters. Identification and measurement of fatty acid concentrations were based on an oil reference standard (NHI-F) from Sigma Co. and the C15 added as an internal standard.
as §1

bubblegum mutant flies [3] = assay: Brain (lamina) degeneration in bubblegum mutant flies by light and electron microscopy; assay type: in vivo, Drosophila; details: for degeneration: male mutant flies raised in oil-containing medium from first instar larvae, 15 day-old adults
Procedure: Tissue preparation for microscopy. Fly heads were prepared by fixation in 1% paraformaldehyde+1% glutaraldehyde, postfixation in 1% osmium tetroxide, dehydration in an ethanol series, and embedding in Epon 812. For light microscopy, […] were stained with 1% toludine blue 1% Borax. For electron microscopy, ultrathin sections (80 nm) were examined with a Philips 201 electron microscope at 60 kV.
as §1

C26 = details: ALD, feeding GTO oil, within 4 months; cited from earlier work

## CCCCCCCC/C=C\CCCCCCCC(=O)OCC(COC(=O)CCCCCCC/C=C\CCCCCCCC)OC(=O)CCCCCCC/C=C\CCCCCCCC [GTO, glyceryl trioleate]
Bubblegum mutant flies [1]
  phototactic response (response to the light): greatly enhanced response to the light
Bubblegum mutant flies [1]; listed as oil
  phototactic response (response to the light): showed a phototactic response
Bubblegum mutant flies [2]
  lifespan: recovered
VLCFAs
  levels of VLCFAs: becoming normal
VLCFAs; listed as GTO oil
  levels of VLCFAs: reduced to normal
Bubblegum mutant flies [3]; adult mutant flies transferred to medium with 2.5% GTO oil, fed 15 days following emergence
  onset of brain degeneration: reduced only slightly
Bubblegum mutant flies [3]; homozygous females fed the oil
  age-dependent degeneration phenotype: similarly prevented
Bubblegum mutant flies [3]
  degeneration: largely prevented; also recorded: prevented the onset of degeneration
Bubblegum mutant flies [3]; listed as GTO oil
  degeneration: largely been prevented
C26
  reduction of the level of C26 in plasm: about 50%
